{"source": "ChEMBL document CHEMBL3868582", "about": "“Discovery, pharmacology, and clinical profile of omadacycline, a novel aminomethylcycline antibiotic” (Bioorg Med Chem, 2016)", "key": {"[1]": {"system": "Clostridioides difficile", "assay": "Antibacterial activity against Clostridium difficile infected in hamster model assessed as median survival time", "format": "functional"}, "[2]": {"assay": "Induction of CYP2C9 mRNA level in human primary hepatocytes at 1 to 100 uM after 24 to 48 hrs relative to control", "format": "ADME, cell-based, Hepatocyte"}, "[3]": {"assay": "Induction of CYP1B1 mRNA level in human primary hepatocytes at 1 to 100 uM after 24 to 48 hrs relative to control", "format": "ADME, cell-based, Hepatocyte"}, "[4]": {"assay": "Metabolic stability in human microsomes at 4.8 uM after 30 mins", "format": "ADME, Microsome", "conditions": "read-out: Stability"}, "[5]": {"system": "Escherichia coli", "assay": "Antibacterial activity against Escherichia coli by microdilution broth assay", "format": "functional"}, "[6]": {"assay": "Induction of CYP2C19 mRNA level in human primary hepatocytes at 1 to 100 uM after 24 to 48 hrs relative to control", "format": "ADME, cell-based, Hepatocyte"}, "[7]": {"system": "Streptococcus pneumoniae", "assay": "Antibacterial activity against Streptococcus pneumoniae PBS1399", "format": "functional"}, "[8]": {"system": "Serratia marcescens", "assay": "Antibacterial activity against Serratia marcescens", "format": "functional"}, "[9]": {"system": "Providencia sp.", "assay": "Antibacterial activity against Providencia sp.", "format": "functional"}, "[10]": {"system": "Haemophilus influenzae", "assay": "Antibacterial activity against Haemophilus influenzae", "format": "functional"}, "[11]": {"system": "Shigella sp.", "assay": "Antibacterial activity against Shigella sp.", "format": "functional"}, "[12]": {"assay": "Induction of CYP1A1 mRNA level in human primary hepatocytes at 1 to 100 uM after 24 to 48 hrs relative to control", "format": "ADME, cell-based, Hepatocyte"}, "[13]": {"system": "Stenotrophomonas maltophilia", "assay": "Antibacterial activity against Stenotrophomonas maltophilia", "format": "functional"}, "[14]": {"assay": "Induction of CYP3A4/5 mRNA level in human primary hepatocytes at 1 to 100 uM after 24 to 48 hrs relative to control", "format": "ADME, cell-based, Hepatocyte"}, "[15]": {"system": "Clostridioides difficile", "assay": "Antibacterial activity against Clostridium difficile by agar microdilution assay", "format": "functional"}, "[16]": {"assay": "Induction of CYP2A6 mRNA level in human primary hepatocytes at 1 to 100 uM after 24 to 48 hrs relative to control", "format": "ADME, cell-based, Hepatocyte"}, "[17]": {"system": "Klebsiella aerogenes", "assay": "Antibacterial activity against Enterobacter aerogenes", "format": "functional"}, "[18]": {"system": "Haemophilus influenzae", "assay": "Antibacterial activity against Haemophilus influenzae PBS981", "format": "functional"}, "[19]": {"assay": "Metabolic stability in human hepatocytes at 48 uM up to 24 hrs", "format": "ADME, cell-based, Hepatocyte", "conditions": "read-out: Stability"}, "[20]": {"assay": "Induction of CYP2J2 mRNA level in human primary hepatocytes at 1 to 100 uM after 24 to 48 hrs relative to control", "format": "ADME, cell-based, Hepatocyte"}, "[21]": {"assay": "Induction of CYP2C8 mRNA level in human primary hepatocytes at 1 to 100 uM after 24 to 48 hrs relative to control", "format": "ADME, cell-based, Hepatocyte"}, "[22]": {"system": "Staphylococcus aureus", "assay": "Antibacterial activity against Staphylococcus aureus USA300", "format": "functional"}, "[23]": {"assay": "Induction of CYP2E1 mRNA level in human primary hepatocytes at 1 to 100 uM after 24 to 48 hrs relative to control", "format": "ADME, cell-based, Hepatocyte"}, "[24]": {"system": "Klebsiella pneumoniae", "assay": "Antibacterial activity against Klebsiella pneumoniae by microdilution broth assay", "format": "functional"}, "[25]": {"system": "Proteus sp.", "assay": "Antibacterial activity against Proteus sp.", "format": "functional", "conditions": "Proteus sp. (in: enterobacteria)"}, "[26]": {"system": "Clostridium perfringens", "assay": "Antibacterial activity against Clostridium perfringens", "format": "functional"}, "[27]": {"system": "Staphylococcus aureus", "assay": "Antibacterial activity against Staphylococcus aureus USA400", "format": "functional"}, "[28]": {"system": "Pseudomonas aeruginosa", "assay": "Antibacterial activity against Pseudomonas aeruginosa", "format": "functional"}, "[29]": {"system": "Moraxella catarrhalis", "assay": "Antibacterial activity against Moraxella catarrhalis", "format": "functional"}, "[30]": {"assay": "Induction of CYP2D6 mRNA level in human primary hepatocytes at 1 to 100 uM after 24 to 48 hrs relative to control", "format": "ADME, cell-based, Hepatocyte"}, "[31]": {"system": "Clostridioides difficile", "assay": "Antibacterial activity against Clostridium difficile by broth microdilution assay", "format": "functional"}, "[32]": {"system": "Haemophilus influenzae", "assay": "Antibacterial activity against Haemophilus influenzae PBS981 infected in CD-1 mouse assessed as reduction in bacterial load in lungs administered intravenously as single dose after 2 hrs of infection measured after 24 hrs post treatment", "format": "functional", "conditions": "PBS981, iv"}, "[33]": {"system": "Salmonella sp.", "assay": "Antibacterial activity against Salmonella sp.", "format": "functional"}, "[34]": {"system": "Enterobacter cloacae", "assay": "Antibacterial activity against Enterobacter cloacae", "format": "functional"}, "[35]": {"system": "Haemophilus influenzae", "assay": "[…] activity against Haemophilus influenzae assessed as reduction in bacterial load at MIC by time-kill analysis", "format": "functional"}, "[36]": {"system": "Streptococcus pneumoniae", "assay": "Antibacterial activity against Streptococcus pneumoniae PBS1399 infected in mouse assessed as protection against bacterial infection by measuring mouse survival administered intravenously as single dose after 2 hrs of infection measured on day 7", "format": "functional", "conditions": "PBS1399, iv, read-out: PD50"}, "[37]": {"molecular_target": "Voltage-gated inwardly rectifying potassium channel KCNH2 (Homo sapiens, UniProt Q12809)", "sequence (Q12809 whole entry)": "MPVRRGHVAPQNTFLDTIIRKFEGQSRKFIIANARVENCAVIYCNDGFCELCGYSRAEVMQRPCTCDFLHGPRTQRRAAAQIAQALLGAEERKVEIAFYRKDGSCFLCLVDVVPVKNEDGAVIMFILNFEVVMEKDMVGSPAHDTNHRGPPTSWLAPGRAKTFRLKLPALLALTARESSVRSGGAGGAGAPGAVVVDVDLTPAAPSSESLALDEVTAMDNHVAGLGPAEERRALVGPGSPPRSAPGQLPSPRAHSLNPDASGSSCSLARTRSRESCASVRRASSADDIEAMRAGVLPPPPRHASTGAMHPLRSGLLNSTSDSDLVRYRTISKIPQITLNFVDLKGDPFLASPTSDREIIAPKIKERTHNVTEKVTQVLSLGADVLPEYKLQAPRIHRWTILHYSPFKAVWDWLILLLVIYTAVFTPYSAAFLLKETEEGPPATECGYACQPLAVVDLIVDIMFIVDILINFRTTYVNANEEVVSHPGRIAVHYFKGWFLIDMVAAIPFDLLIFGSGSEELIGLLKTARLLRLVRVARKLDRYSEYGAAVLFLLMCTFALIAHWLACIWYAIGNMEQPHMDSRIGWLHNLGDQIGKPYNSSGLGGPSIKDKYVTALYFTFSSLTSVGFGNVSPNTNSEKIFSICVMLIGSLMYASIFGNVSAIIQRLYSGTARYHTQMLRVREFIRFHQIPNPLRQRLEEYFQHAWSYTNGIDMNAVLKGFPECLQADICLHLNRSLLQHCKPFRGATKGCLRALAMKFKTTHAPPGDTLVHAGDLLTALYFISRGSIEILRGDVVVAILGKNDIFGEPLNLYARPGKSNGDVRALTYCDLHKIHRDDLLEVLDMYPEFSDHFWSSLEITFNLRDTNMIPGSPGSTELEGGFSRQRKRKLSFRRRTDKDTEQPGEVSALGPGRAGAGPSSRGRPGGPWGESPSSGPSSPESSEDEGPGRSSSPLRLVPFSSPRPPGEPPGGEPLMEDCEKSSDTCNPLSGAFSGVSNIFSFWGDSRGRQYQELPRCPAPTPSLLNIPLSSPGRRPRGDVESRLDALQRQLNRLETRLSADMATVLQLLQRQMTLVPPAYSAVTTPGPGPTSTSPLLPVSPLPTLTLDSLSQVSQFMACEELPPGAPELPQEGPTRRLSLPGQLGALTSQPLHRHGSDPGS", "assay": "Inhibition of human ERG"}, "[38]": {"system": "Haemophilus influenzae", "assay": "Antibacterial activity against Haemophilus influenzae by microdilution broth assay", "format": "functional"}, "[39]": {"assay": "Induction of CYP2B6 mRNA level in human primary hepatocytes at 1 to 100 uM after 24 to 48 hrs relative to control", "format": "ADME, cell-based, Hepatocyte"}, "[40]": {"system": "Staphylococcus aureus", "assay": "Antibacterial activity against Staphylococcus aureus USA300 in mouse thigh wound infection model assessed as reduction in bacterial load administered intravenously as single dose after 2 hrs of infection measured after 24 hrs post treatment", "format": "functional", "conditions": "USA300, iv"}, "[41]": {"system": "Staphylococcus aureus", "assay": "Antibacterial activity against Staphylococcus aureus USA400 in mouse thigh wound infection model assessed as reduction in bacterial load administered intravenously as single dose after 2 hrs of infection measured after 24 hrs post treatment", "format": "functional", "conditions": "USA400, iv"}, "[42]": {"assay": "Induction of CYP1A2 mRNA level in human primary hepatocytes at 1 to 100 uM after 24 to 48 hrs relative to control", "format": "ADME, cell-based, Hepatocyte"}, "[43]": {"system": "Bacteroides fragilis", "assay": "Antibacterial activity against Bacteroides fragilis", "format": "functional"}, "[44]": {"system": "Escherichia coli", "assay": "Antibacterial activity against Escherichia coli", "format": "functional"}}, "data": [{"molecule": "CN(C)c1cc(CNCC(C)(C)C)c(O)c2c1C[C@H]1C[C@H]3[C@H](N(C)C)C(O)=C(C(N)=O)C(=O)[C@@]3(O)C(O)=C1C2=O", "note": "[OMADACYCLINE]", "values": [{"measurement": "MST", "setting": "[1]", "result": 12, "unit": "days"}, {"measurement": "Activity", "setting": "[2]", "result": "< 40", "unit": "%"}, {"measurement": "Activity", "setting": "[3]", "result": "< 40", "unit": "%"}, {"measurement": "remaining at 0.5 h, 4.8 µM", "setting": "[4]", "result": "> 90", "unit": "%"}, {"measurement": "MIC90", "setting": "[5]", "result": "2 to 4", "unit": "µg/mL"}, {"measurement": "Activity", "setting": "[6]", "result": "< 40", "unit": "%"}, {"measurement": "MIC", "setting": "[7]", "result": 0.125, "unit": "µg/mL"}, {"measurement": "MIC90", "setting": "[8]", "result": "< 4", "unit": "µg/mL"}, {"measurement": "MIC90", "setting": "[9]", "result": "> 16", "unit": "µg/mL"}, {"measurement": "MIC90", "setting": "[10]", "result": 2, "unit": "µg/mL"}, {"measurement": "MIC90", "setting": "[11]", "result": "< 4", "unit": "µg/mL"}, {"measurement": "Activity", "setting": "[12]", "result": "< 40", "unit": "%"}, {"measurement": "MIC90", "setting": "[13]", "result": "< 4", "unit": "µg/mL"}, {"measurement": "Activity", "setting": "[14]", "result": "< 40", "unit": "%"}, {"measurement": "MIC90", "setting": "[15]", "result": 0.12, "unit": "µg/mL"}, {"measurement": "Activity", "setting": "[16]", "result": "< 40", "unit": "%"}, {"measurement": "MIC90", "setting": "[17]", "result": "< 4", "unit": "µg/mL"}, {"measurement": "MIC", "setting": "[18]", "result": 1, "unit": "µg/mL"}, {"measurement": "remaining at 24 h, 48 µM", "setting": "[19]", "result": "> 86", "unit": "%"}, {"measurement": "Activity", "setting": "[20]", "result": "< 40", "unit": "%"}, {"measurement": "Activity", "setting": "[21]", "result": "< 40", "unit": "%"}, {"measurement": "MIC", "setting": "[22]", "result": 0.25, "unit": "µg/mL"}, {"measurement": "Activity", "setting": "[23]", "result": "< 40", "unit": "%"}, {"measurement": "MIC90", "setting": "[24]", "result": "2 to 4", "unit": "µg/mL"}, {"measurement": "MIC90", "setting": "[25]", "result": "> 16", "unit": "µg/mL"}, {"measurement": "MIC90", "setting": "[26]", "result": "0.12 to 4", "unit": "µg/mL"}, {"measurement": "MIC", "setting": "[27]", "result": 0.5, "unit": "µg/mL"}, {"measurement": "MIC90", "setting": "[28]", "result": "> 16", "unit": "µg/mL"}, {"measurement": "MIC90", "setting": "[29]", "result": 0.25, "unit": "µg/mL"}, {"measurement": "Activity", "setting": "[30]", "result": "< 40", "unit": "%"}, {"measurement": "MIC90", "setting": "[31]", "result": 0.06, "unit": "µg/mL"}, {"measurement": "ED50", "setting": "[32]", "result": 6.47, "unit": "mg/kg"}, {"measurement": "MIC90", "setting": "[33]", "result": "< 4", "unit": "µg/mL"}, {"measurement": "MIC90", "setting": "[34]", "result": "< 4", "unit": "µg/mL"}, {"measurement": "Activity", "setting": "[35]", "result": ">=3 log10CFU"}, {"measurement": "ED50", "setting": "[36]", "result": 1.5, "unit": "mg/kg"}, {"measurement": "IC25", "setting": "[37]", "result": 166, "unit": "µg/mL"}, {"measurement": "MIC90", "setting": "[38]", "result": "2 to 4", "unit": "µg/mL"}, {"measurement": "Activity", "setting": "[39]", "result": "< 40", "unit": "%"}, {"measurement": "ED50", "setting": "[40]", "result": 0.4, "unit": "mg/kg"}, {"measurement": "ED50", "setting": "[41]", "result": 0.68, "unit": "mg/kg"}, {"measurement": "Activity", "setting": "[42]", "result": "< 40", "unit": "%"}, {"measurement": "MIC90", "setting": "[43]", "result": "0.12 to 4", "unit": "µg/mL"}, {"measurement": "MIC90", "setting": "[44]", "result": "< 4", "unit": "µg/mL"}]}]}
